According to patent publication US5461054A, “Anthracene-spiro-pyrrolindines” (Bayer Aktiengesellschaft, priority 1993, dated 1995):

System: monocyte-free human T cells
Experiment: Inhibition of 5-HT-dependent T Cell Proliferation
Format: cell-based
Details: PWM (1:200) and 5-HT (100 μm), 7 days, 3H-thymidine incorporation, 33 μM-0.1 μM
Source text: The in vitro activity of the compounds according to the invention results from their capability to inhibit T cell proliferation, which is previously stimulated by serotonin.
Inhibition of 5-HT-dependent T Cell Proliferation
Peripheral mononuclear blood cells (PBMC) are obtained from the buffy coat of the blood of healthy subjects. After isolation by means of isolymph gradients (Pharmacia), the PBMC are washed twice and used directly. Purified T cells are obtained by E rosette formation with sheep erythrocytes [cf. Blue, M. L., J. F. Daley, H. Levine, K. A. Craig and S. F. Schlossmann, 1986, Biosynthesis and surface expression of T8 by peripheral blood T4+ cells in vitro, J. Immunol. 137, 1202]. Monocytes are partially removed by adhesion to tissue culture plates or flasks. […] The cultures are treated with 1 μCi of ^3 H-thymidine for 6 h on the 7th day and collected on filter paper, and the incorporated radioactivity is determined by means of liquid scintillation counting.
The test substances are dissolved in 10 mM HCl in order to achieve a final concentration of 1 mM in each case. […] The inhibitory activity of the test substances is expressed as the IC50 in μM. […]

**Q.** For `O=C1CC2(CC3c4ccccc4C2c2ccccc23)C(=O)N1CCCN1CCN(c2ccc(F)cc2)CC1` (centres unmarked) [Example 1, 1'-{3-[4-(4-Fluorophenyl)-piperazin-1-yl]-propyl}-9,10-dihydro-9,10-ethano-anthracene-11-spiro-3'-pyrrolidine-2',5'-dione], which IC50 is on record?
**A.** Its IC50 is 2 µM.

**Q.** `O=C1CC2(CC3c4ccccc4C2c2ccccc23)C(=O)N1CCCN1CCN(c2ccccc2)CC1` (centres unmarked) [Example 2] was tested. Which IC50 did it give?
**A.** The IC50 was 5 µM.
